According to ChEMBL document CHEMBL1201862, “PubChem BioAssay data set” (2004):
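A five-concentration, 48-hour dose response in 96-well plates underlies each endpoint, interpolated linearly between surrounding concentrations. GI50 = concentration required for 50% inhibition of growth.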 Calls of active or inactive are those of the source. Cut-off read from the data, not from the text of the source: active = GI50 up to about 1.1 µM and inactive = higher.

How the values were obtained:
Assay in all cases: NCI anticancer screen, dose series, 48 h
DMS-273 = tested on: DMS-273
SK-MEL-2 = tested on: SK-MEL-2
COLO 205 = tested on: COLO 205
UO-31 = tested on: UO-31
HOP-18 = tested on: HOP-18
HOP-92 = tested on: HOP-92
SF-539 = tested on: SF-539
SK-MEL-5 = tested on: SK-MEL-5
NCI-H522 = tested on: NCI-H522
OVCAR-5 = tested on: OVCAR-5
LXFL 529 = tested on: LXFL 529
NCI-H23 = tested on: NCI-H23
CAKI-1 = tested on: CAKI-1
M14 = tested on: M14
MCF7 = tested on: MCF7
BT-549 = tested on: BT-549
MDA-N = tested on: MDA-N
MDA-MB-231 = tested on: MDA-MB-231
NCI/ADR-RES = tested on: NCI/ADR-RES
Hs-578T = tested on: Hs-578T

Measured: GI50

CCCOC(=O)CCC(NC(=O)c1ccc(Nc2nc3ccccc3nc2-c2cccs2)cc1)C(=O)OCCC (centres undefined)
inactive: DMS-273 > 100 µM | SK-MEL-2 24.8 µM | COLO 205 > 100 µM | UO-31 95.9 µM | HOP-18 > 100 µM | HOP-92 29.2 µM | SF-539 > 100 µM | SK-MEL-5 72.1 µM | NCI-H522 > 100 µM | OVCAR-5 56 µM | LXFL 529 > 100 µM | NCI-H23 > 100 µM | CAKI-1 > 100 µM

Cc1cccc2c1Sc1ccccc1C2NC(=O)CN(C)C (centres undefined)
inactive: DMS-273 > 100 µM | M14 41.4 µM | COLO 205 > 100 µM | UO-31 33.6 µM | SF-539 > 100 µM | SK-MEL-5 36.1 µM | OVCAR-5 > 100 µM | LXFL 529 > 100 µM | NCI-H23 > 100 µM

Nc1nc(=S)[nH]c2nc3c(c(-c4ccccc4)c12)CCCC3
inactive: MCF7 > 100 µM | M14 > 100 µM | COLO 205 > 100 µM | BT-549 > 100 µM | MDA-N > 100 µM | UO-31 > 100 µM | MDA-MB-231 > 100 µM | SF-539 71.6 µM | SK-MEL-5 > 100 µM | NCI/ADR-RES > 100 µM | OVCAR-5 > 100 µM | Hs-578T 51.9 µM | NCI-H23 > 100 µM | CAKI-1 > 100 µM

O=Cc1c(Br)[nH]c2ccccc12
inactive: DMS-273 > 100 µM | MCF7 47 µM | SK-MEL-2 75.3 µM | COLO 205 97.9 µM | UO-31 39.9 µM | HOP-18 61.1 µM | HOP-92 29.6 µM | SF-539 > 100 µM | SK-MEL-5 45.4 µM | NCI/ADR-RES > 100 µM | NCI-H522 61.2 µM | OVCAR-5 > 91.4 µM | NCI-H23 > 100 µM
